System: panel of cancer cell lines
Experiment: Cell viability (CellTiter-Glo) dose-response across cancer cell line panel;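 note: after 72 h compound incubation with CellTiter-Glo ATP readout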
Type: cell-based, human
Settings: Homo sapiens
In short: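 Dose–response viability screen of a CSN5 inhibitor in over 500 cancer lines. Compound exposure lasted 72 h at 37 °C and 5% CO2, starting 4 h post-seeding. ATP luminescence (CellTiter-Glo) was read, and EC50 was obtained by nonlinear regression of percent inhibition.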

## NS(=O)(=O)OC[C@@H]1C[C@@H](n2ccc3c(N[C@H]4CCc5ccccc54)ncnc32)C[C@@H]1O [MLN4924]
MOLT-16, MOLT-16
  EC50: 0.134 µM
MSTO-211H
  EC50: 0.366 µM
MV4-11, MV-4-11
  EC50: 0.0748 µM
Malme-3M
  EC50: 0.521 µM
MeWo
  EC50: 0.279 µM
Mono-Mac-1, MONO-MAC-1
  EC50: 0.233 µM
NALM-6, NALM-6
  EC50: 0.432 µM
NB1, NB-1
  EC50: 0.213 µM
NB-4, NB-4
  EC50: 0.0609 µM
NCI-H23, NCI-H23
  EC50: 0.532 µM
NCI-H28, NCI-H28
  EC50: 10.8 µM
NCI-H82, NCI-H82
  EC50: 0.0896 µM
NCI-H146, NCI-H146
  EC50: 0.24 µM
NCI-H211, NCI-H211
  EC50: 2.84 µM
NCI-H322, NCI-H322
  EC50: 0.767 µM
NCI-H460, NCI-H460
  EC50: 1.46 µM
NCI-H520, NCI-H520
  EC50: 4.07 µM
NCI-H647, NCI-H647
  EC50: 3.22 µM
NCI-H650, NCI-H650
  EC50: 0.424 µM
NCI-H661, NCI-H661
  EC50: 0.174 µM
NCI-H747, NCI-H747
  EC50: 2.32 µM
NCI-H810, NCI-H810
  EC50: 0.0265 µM
NCI-H838, NCI-H838
  EC50: 0.259 µM
NCI-H841, NCI-H841
  EC50: 0.204 µM
NCI-H1048, NCI-H1048
  EC50: 0.0799 µM
NCI-H1299, NCI-H1299
  EC50: 0.46 µM
NCI-H1339, NCI-H1339
  EC50: 0.067 µM
NCI-H1341
  EC50: 0.0864 µM
NCI-H1355, NCI-H1355
  EC50: 0.7 µM
NCI-H1373, NCI-H1373
  EC50: 0.655 µM
NCI-H1437, NCI-H1437
  EC50: 2.82 µM
NCI-H1568, NCI-H1568
  EC50: 0.68 µM
NCI-H1581, NCI-H1581
  EC50: 0.296 µM
NCI-H1650, NCI-H1650
  EC50: 5.84 µM
NCI-H1666, NCI-H1666
  EC50: 2.27 µM
NCI-H1693, NCI-H1693
  EC50: 0.541 µM
NCI-H1703, NCI-H1703
  EC50: 0.0321 µM
NCI-H1755, NCI-H1755
  EC50: 3.31 µM
NCI-H1792, NCI-H1792
  EC50: 7.9 µM
NCI-H1915, NCI-H1915
  EC50: 1.16 µM
NCI-H1975, NCI-H1975
  EC50: 2.71 µM
NCI-H2023, NCI-H2023
  EC50: 0.376 µM
NCI-H2030, NCI-H2030
  EC50: 0.402 µM
NCI-H2073, NCI-H2073
  EC50: 0.399 µM
NCI-H2087, NCI-H2087
  EC50: 0.493 µM
NCI-H2110, NCI-H2110
  EC50: 0.238 µM
NCI-H2122, NCI-H2122
  EC50: 0.335 µM
NCI-H2126, NCI-H2126
  EC50: 15.2 µM
NCI-H2170, NCI-H2170
  EC50: 0.335 µM
NCI-H2172, NCI-H2172
  EC50: 10.7 µM
NCI-H2228, NCI-H2228
  EC50: 1.33 µM
NCI-H2286, NCI-H2286
  EC50: 0.119 µM
NCI-H2444, NCI-H2444
  EC50: 0.413 µM
NCI-H2452, NCI-H2452
  EC50: 1.81 µM
NCI-H3255, NCI-H3255
  EC50: > 30 µM
NCI-N87, NCI-N87
  EC50: 2.98 µM
NO36
  EC50: 0.873 µM
NOMO-1, NOMO-1
  EC50: 0.137 µM
NUGC-3, NUGC-3
  EC50: 0.929 µM
OCI-AML-3, OCI-AML3
  EC50: 0.0933 µM
OCI-AML-5, OCI-AML5
  EC50: 0.24 µM
OCI-Ly3, OCI-LY3
  EC50: 0.112 µM
OCI-M1, OCI-M1
  EC50: 0.0343 µM
OUMS-23, OUMS-23
  EC50: 0.97 µM
OV56, OV56
  EC50: 0.387 µM
OVCAR-3, NIH:OVCAR-3
  EC50: 0.304 µM
OVCAR-4, OVCAR-4
  EC50: 0.789 µM
OVISE
  EC50: 0.791 µM
P3HR-1, P3HR-1
  EC50: 0.283 µM
P12-Ichikawa
  EC50: 0.208 µM
P31-FUJ, P31/FUJ
  EC50: 0.285 µM
PANC-1, PANC-1
  EC50: 3.93 µM
PANC-03-27, Panc 03.27
  EC50: 0.401 µM
PC-3, PC-3
  EC50: 0.57 µM
PC-14, PC-14
  EC50: 0.884 µM
PE/CA-PJ34 (clone C12)
  EC50: 0.0861 µM
PE/CA-PJ49
  EC50: 0.297 µM
PF-382, PF-382
  EC50: 0.216 µM
PK-1, PK-1
  EC50: 1.37 µM
PK-45H
  EC50: 1.61 µM
PK-59, PK-59
  EC50: 2.03 µM
PL45, PL45
  EC50: 0.305 µM
PL-21, PL-21
  EC50: 0.136 µM
PLC-PRF-5, PLC/PRF/5
  EC50: 3.76 µM
PSN1, PSN1
  EC50: 1.19 µM
PaTu 8902, PA-TU-8902
  EC50: 0.898 µM
PaTu 8988s, PA-TU-8988S
  EC50: 12.2 µM
PaTu 8988t, PA-TU-8988T
  EC50: 0.888 µM
Panc 02.03, Panc 02.03
  EC50: 3.43 µM
Panc 04.03, Panc 04.03
  EC50: 0.245 µM
Panc1005, Panc 10.05
  EC50: 0.368 µM
RCM-1, RCM-1
  EC50: 8.84 µM
RD
  EC50: 0.722 µM
RD-ES
  EC50: 0.162 µM
RERF-LC-AI
  EC50: 0.437 µM
RERF-LC-MS
  EC50: 0.719 µM
RKN
  EC50: 0.342 µM
RKO
  EC50: 0.163 µM
RMUG-S
  EC50: 4.13 µM
RPMI 8402, RPMI-8402
  EC50: 0.092 µM
RPMI-7951, RPMI-7951
  EC50: 1.02 µM
RT-112, RT-112
  EC50: 0.851 µM
RVH-421, RVH-421
  EC50: 0.727 µM
Rh41, RH-41
  EC50: 0.0324 µM
SCC-25, SCC-25
  EC50: 0.561 µM
SCaBER
  EC50: 3.56 µM
SEM
  EC50: 0.487 µM
SF8657
  EC50: > 30 µM
SF-268, SF-268
  EC50: 0.472 µM
SH-4, SH-4
  EC50: 0.147 µM
SH-10-TC
  EC50: 19.1 µM
SH-SY5Y
  EC50: 0.561 µM
SJRH30, SJRH30
  EC50: 0.0729 µM
SK-CO-1, SK-CO-1
  EC50: 0.258 µM
SK-ES1, SK-ES-1
  EC50: 0.177 µM
SK-HEP1, SK-HEP-1
  EC50: 0.384 µM
SK-LU-1, SK-LU-1
  EC50: 0.915 µM
SK-MEL3, SK-MEL-3
  EC50: 0.722 µM
SK-MEL-2, SK-MEL-2
  EC50: 0.37 µM
SK-MEL-5, SK-MEL-5
  EC50: 0.552 µM
SK-MEL-28, SK-MEL-28
  EC50: 0.603 µM
SK-MEL-30, SK-MEL-30
  EC50: 0.418 µM
SK-MES-1, SK-MES-1
  EC50: 0.725 µM
SK-N-SH
  EC50: 1.14 µM
SK-OV-3, SK-OV-3
  EC50: 1.44 µM
SKM-1, SKM-1
  EC50: 0.0856 µM
SKNBE2, SK-N-BE(2)
  EC50: 0.334 µM
SNB-19, SNB-19
  EC50: 0.626 µM
SNG-M
  EC50: 0.249 µM
SNU668, SNU-668
  EC50: 1.52 µM
SNU878, SNU-878
  EC50: 0.746 µM
SNU-8
  EC50: 0.552 µM
SNU-16, SNU-16
  EC50: 0.272 µM
SNU-61
  EC50: 19 µM
SNU-81
  EC50: 0.175 µM
SNU-175
  EC50: 0.317 µM
SNU-213
  EC50: 2.08 µM
SNU-324
  EC50: 0.685 µM
SNU-349
  EC50: 0.319 µM
SNU-387, SNU-387
  EC50: 3.86 µM
SNU-398, SNU-398
  EC50: 0.294 µM
SNU-410
  EC50: 0.351 µM
SNU-423, SNU-423
  EC50: 0.62 µM
SNU-449, SNU-449
  EC50: 3.54 µM
SNU-475, SNU-475
  EC50: 2.31 µM

From paper PMC5078989, “Targeted inhibition of the COP9 signalosome for treatment of cancer” (Nature Communications, 2016)
